According to PubChem BioAssay (NCI):
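GI50: concentration for 50% inhibition of growth. TGI denotes the concentration required for complete inhibition of growth.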

Tests used:
Assay in all cases: growth of human tumour cells (NCI), 384-well format
786-0 renal = system: 786-0 renal
A498 renal = system: A498 renal
A549 NSCLC = system: A549 NSCLC
ACHN renal = system: ACHN renal
BT-549 breast = system: BT-549 breast
CAKI-1 renal = system: CAKI-1 renal
CCRF-CEM leukemia = system: CCRF-CEM leukemia
DU-145 prostate = system: DU-145 prostate
EKVX NSCLC = system: EKVX NSCLC
HCT-116 colon = system: HCT-116 colon
HCT-15 colon = system: HCT-15 colon
HL-60(TB) leukemia = system: HL-60(TB) leukemia
HOP-62 NSCLC = system: HOP-62 NSCLC
HOP-92 NSCLC = system: HOP-92 NSCLC
HS 578T breast = system: HS 578T breast
HT29 colon = system: HT29 colon
IGROV1 ovarian = system: IGROV1 ovarian
K-562 leukemia = system: K-562 leukemia
KM12 colon = system: KM12 colon
LOX IMVI melanoma = system: LOX IMVI melanoma
M14 melanoma = system: M14 melanoma
MALME-3M melanoma = system: MALME-3M melanoma
MCF7 breast = system: MCF7 breast
MDA-MB-231 breast = system: MDA-MB-231 breast
MDA-MB-435 melanoma = system: MDA-MB-435 melanoma
MDA-MB-468 breast = system: MDA-MB-468 breast
MOLT-4 leukemia = system: MOLT-4 leukemia
NCI-H226 lung = system: NCI-H226 lung
NCI-H23 lung = system: NCI-H23 lung
NCI-H322M lung = system: NCI-H322M lung
NCI-H522 lung = system: NCI-H522 lung
NCI/ADR-RES ovarian = system: NCI/ADR-RES ovarian
OVCAR-3 ovarian = system: OVCAR-3 ovarian
OVCAR-4 ovarian = system: OVCAR-4 ovarian
OVCAR-5 ovarian = system: OVCAR-5 ovarian
OVCAR-8 ovarian = system: OVCAR-8 ovarian
PC-3 prostate = system: PC-3 prostate
RPMI-8226 leukemia = system: RPMI-8226 leukemia
RXF 393 renal = system: RXF 393 renal
SF-268 CNS = system: SF-268 CNS
SF-295 CNS = system: SF-295 CNS
SF-539 CNS = system: SF-539 CNS
SK-MEL-2 melanoma = system: SK-MEL-2 melanoma
SK-MEL-28 melanoma = system: SK-MEL-28 melanoma
SK-OV-3 ovarian = system: SK-OV-3 ovarian
SN12C renal = system: SN12C renal
SNB-19 CNS = system: SNB-19 CNS
SNB-75 CNS = system: SNB-75 CNS
SW-620 colon = system: SW-620 colon
T-47D breast = system: T-47D breast
TK-10 renal = system: TK-10 renal
U251 glioblastoma = system: U251 glioblastoma
UACC-257 melanoma = system: UACC-257 melanoma
UACC-62 melanoma = system: UACC-62 melanoma
UO-31 renal = system: UO-31 renal

SMILES: Nc1nc(=S)c2[nH]cnc2[nH]1
- GI50 ([…]-0 renal): 0.469 µM
- TGI (786-0 renal): 12 µM
- GI50 (A498 renal): 4.85 µM
- TGI (A498 renal): 28.7 µM
- GI50 (A549 NSCLC): 2.1 µM
- TGI (A549 NSCLC): 7.53 µM
- GI50 (ACHN renal): 1.52 µM
- TGI (ACHN renal): 5.28 µM
- GI50 (BT-549 breast): 0.449 µM
- TGI (BT-549 breast): 2.31 µM
- GI50 (CAKI-1 renal): 0.371 µM
- TGI (CAKI-1 renal): 2.62 µM
- GI50 (CCRF-CEM leukemia): 0.212 µM
- TGI (CCRF-CEM leukemia): 0.383 µM
- GI50 (DU-145 prostate): 0.311 µM
- TGI (DU-145 prostate): 1.18 µM
- GI50 (EKVX NSCLC): 0.544 µM
- TGI (EKVX NSCLC): 12.2 µM
- GI50 (HCT-116 colon): 0.341 µM
- TGI (HCT-116 colon): 7.39 µM
- GI50 (HCT-15 colon): 0.988 µM
- TGI (HCT-15 colon): 7.18 µM
- GI50 (HL-60(TB) leukemia): 0.376 µM
- TGI (HL-60(TB) leukemia): 1.1 µM
- GI50 (HOP-62 NSCLC): 0.304 µM
- TGI (HOP-62 NSCLC): 0.784 µM
- GI50 (HOP-92 NSCLC): 0.393 µM
- TGI (HOP-92 NSCLC): 25.2 µM
- GI50 (HS 578T breast): 1.25 µM
- TGI (HS 578T breast): 4.46 µM
- GI50 (HT29 colon): 0.906 µM
- TGI (HT29 colon): 5.3 µM
- GI50 (IGROV1 ovarian): 3.51 µM
- TGI (IGROV1 ovarian): 27.7 µM
- GI50 (K-562 leukemia): 0.366 µM
- TGI (K-562 leukemia): 1.21 µM
- GI50 (KM12 colon): 0.917 µM
- TGI (KM12 colon): 4.9 µM
- GI50 (LOX IMVI melanoma): 0.206 µM
- TGI (LOX IMVI melanoma): 0.426 µM
- GI50 (M14 melanoma): 0.379 µM
- TGI (M14 melanoma): 4.41 µM
- GI50 (MALME-3M melanoma): 0.718 µM
- TGI (MALME-3M melanoma): 3.47 µM
- GI50 (MCF7 breast): 0.297 µM
- TGI (MCF7 breast): 1.33 µM
- GI50 (MDA-MB-231 breast): 0.283 µM
- TGI (MDA-MB-231 breast): 0.918 µM
- GI50 (MDA-MB-435 melanoma): 1.09 µM
- TGI (MDA-MB-435 melanoma): 4.73 µM
- GI50 (MDA-MB-468 breast): 0.238 µM
- TGI (MDA-MB-468 breast): 0.565 µM
- GI50 (MOLT-4 leukemia): 0.112 µM
- TGI (MOLT-4 leukemia): 0.248 µM
- GI50 (NCI-H226 lung): 0.36 µM
- TGI (NCI-H226 lung): 3.92 µM
- GI50 (NCI-H23 lung): 0.377 µM
- TGI (NCI-H23 lung): 1.69 µM
- GI50 (NCI-H322M lung): 2.21 µM
- TGI (NCI-H322M lung): 21.2 µM
- GI50 (NCI-H522 lung): 1.03 µM
- TGI (NCI-H522 lung): 2.84 µM
- GI50 (NCI/ADR-RES ovarian): 0.375 µM
- TGI (NCI/ADR-RES ovarian): 1.52 µM
- GI50 (OVCAR-3 ovarian): 0.306 µM
- TGI (OVCAR-3 ovarian): 1.03 µM
- GI50 (OVCAR-4 ovarian): 1.05 µM
- TGI (OVCAR-4 ovarian): 7.19 µM
- GI50 (OVCAR-5 ovarian): 0.199 µM
- TGI (OVCAR-5 ovarian): 0.465 µM
- GI50 (OVCAR-8 ovarian): 0.362 µM
- TGI (OVCAR-8 ovarian): 1.56 µM
- GI50 (PC-3 prostate): 1.34 µM
- TGI (PC-3 prostate): 14.5 µM
- GI50 (RPMI-8226 leukemia): 0.139 µM
- TGI (RPMI-8226 leukemia): 0.296 µM
- GI50 (RXF 393 renal): 0.728 µM
- TGI (RXF 393 renal): 3.51 µM
- GI50 (SF-268 CNS): 0.428 µM
- TGI (SF-268 CNS): 2.4 µM
- GI50 (SF-295 CNS): 0.248 µM
- TGI (SF-295 CNS): 0.735 µM
- GI50 (SF-539 CNS): 0.686 µM
- TGI (SF-539 CNS): 7.92 µM
- GI50 (SK-MEL-2 melanoma): 3.32 µM
- TGI (SK-MEL-2 melanoma): 7.34 µM
- GI50 (SK-MEL-28 melanoma): 4.57 µM
- TGI (SK-MEL-28 melanoma): 26.7 µM
- GI50 (SK-OV-3 ovarian): 0.541 µM
- TGI (SK-OV-3 ovarian): 9.85 µM
- GI50 (SN12C renal): 1.44 µM
- TGI (SN12C renal): 8.29 µM
- GI50 (SNB-19 CNS): 28 µM
- GI50 (SNB-75 CNS): 0.353 µM
- TGI (SNB-75 CNS): 13.2 µM
- GI50 (SW-620 colon): 3.02 µM
- TGI (SW-620 colon): 23.3 µM
- GI50 (T-47D breast): 0.715 µM
- TGI (T-47D breast): 15.5 µM
- GI50 (TK-10 renal): 0.251 µM
- TGI (TK-10 renal): 0.625 µM
- GI50 (U251 glioblastoma): 3.4 µM
- TGI (U251 glioblastoma): 83.3 µM
- GI50 (UACC-257 melanoma): 1.13 µM
- TGI (UACC-257 melanoma): 8.82 µM
- GI50 (UACC-62 melanoma): 0.366 µM
- TGI (UACC-62 melanoma): 1.69 µM
- GI50 (UO-31 renal): 1.5 µM
- TGI (UO-31 renal): 11.8 µM

SMILES: O=NN(CCCl)C(=O)NC1CCCCC1
- GI50 ([…]-0 renal): 20.2 µM
- TGI (786-0 renal): 66.4 µM
- GI50 (A498 renal): 73.1 µM
- GI50 (A549 NSCLC): 51.8 µM
- GI50 (ACHN renal): 24.9 µM
- TGI (ACHN renal): 71.4 µM
- GI50 (BT-549 breast): 21.4 µM
- TGI (BT-549 breast): 59.6 µM
- GI50 (CAKI-1 renal): 22.9 µM
- TGI (CAKI-1 renal): 75.4 µM
- GI50 (CCRF-CEM leukemia): 19.5 µM
- TGI (CCRF-CEM leukemia): 33.8 µM
- GI50 (DU-145 prostate): 51.9 µM
- GI50 (HCT-116 colon): 32.3 µM
- GI50 (HCT-15 colon): 19.1 µM
- TGI (HCT-15 colon): 41.3 µM
- GI50 (HL-60(TB) leukemia): 12.2 µM
- TGI (HL-60(TB) leukemia): 24.8 µM
- GI50 (HOP-62 NSCLC): 18.9 µM
- TGI (HOP-62 NSCLC): 56.5 µM
- GI50 (HOP-92 NSCLC): 28.9 µM
- GI50 (HS 578T breast): 13.1 µM
- TGI (HS 578T breast): 42.5 µM
- GI50 (HT29 colon): 27.1 µM
- TGI (HT29 colon): 78 µM
- GI50 (IGROV1 ovarian): 78 µM
- GI50 (K-562 leukemia): 20.1 µM
- TGI (K-562 leukemia): 42.5 µM
- GI50 (KM12 colon): 22.2 µM
- TGI (KM12 colon): 86.8 µM
- GI50 (LOX IMVI melanoma): 13.2 µM
- TGI (LOX IMVI melanoma): 38 µM
- GI50 (M14 melanoma): 21.9 µM
- TGI (M14 melanoma): 65.2 µM
- GI50 (MALME-3M melanoma): 18.6 µM
- TGI (MALME-3M melanoma): 43.5 µM
- GI50 (MCF7 breast): 41.1 µM
- GI50 (MDA-MB-231 breast): 76.1 µM
- GI50 (MDA-MB-435 melanoma): 26 µM
- TGI (MDA-MB-435 melanoma): 81.2 µM
- GI50 (MDA-MB-468 breast): 13.2 µM
- TGI (MDA-MB-468 breast): 28.4 µM
- GI50 (MOLT-4 leukemia): 12.4 µM
- TGI (MOLT-4 leukemia): 25 µM
- GI50 (NCI-H226 lung): 29.9 µM
- GI50 (NCI-H23 lung): 30.3 µM
- GI50 (NCI-H522 lung): 15.4 µM
- TGI (NCI-H522 lung): 29 µM
- GI50 (NCI/ADR-RES ovarian): 22.7 µM
- TGI (NCI/ADR-RES ovarian): 54.4 µM
- GI50 (OVCAR-3 ovarian): 27.4 µM
- TGI (OVCAR-3 ovarian): 98 µM
- GI50 (OVCAR-4 ovarian): 20.6 µM
- TGI (OVCAR-4 ovarian): 50.3 µM
- GI50 (OVCAR-8 ovarian): 21.4 µM
- TGI (OVCAR-8 ovarian): 49.6 µM
- GI50 (PC-3 prostate): 29 µM
- GI50 (RPMI-8226 leukemia): 13.7 µM
- TGI (RPMI-8226 leukemia): 26.9 µM
- GI50 (RXF 393 renal): 17.3 µM
- TGI (RXF 393 renal): 36 µM
- GI50 (SF-268 CNS): 29.3 µM
- GI50 (SF-295 CNS): 27.2 µM
- GI50 (SF-539 CNS): 16.4 µM
- TGI (SF-539 CNS): 35.3 µM
- GI50 (SK-MEL-2 melanoma): 32.5 µM
- TGI (SK-MEL-2 melanoma): 78.9 µM
- GI50 (SK-MEL-28 melanoma): 42.5 µM
- GI50 (SK-OV-3 ovarian): 55.1 µM
- GI50 (SN12C renal): 21.3 µM
- TGI (SN12C renal): 61.2 µM
- GI50 (SNB-19 CNS): 34.9 µM
- GI50 (SNB-75 CNS): 34.6 µM
- GI50 (SW-620 colon): 20.9 µM
- TGI (SW-620 colon): 69.1 µM
- GI50 (T-47D breast): 34.6 µM
- GI50 (TK-10 renal): 32.8 µM
- GI50 (U251 glioblastoma): 18.9 µM
- GI50 (UACC-257 melanoma): 52.1 µM
- GI50 (UACC-62 melanoma): 12.5 µM
- TGI (UACC-62 melanoma): 41.6 µM
- GI50 (UO-31 renal): 24.3 µM
- TGI (UO-31 renal): 63.1 µM
